Results: patent US9737535B2, “Methods for treating cancer using TOR kinase inhibitor combination therapy comprising administering substituted pyrazino[2,3-b]pyrazines” (Signal Pharmaceuticals, LLC, priority 2014, dated 2017)

What follows are compounds tested on HCC-1187 (assay: Anti-proliferation assay (ATPLite), Chalice synergy score). Details: Compound 1 in combination with the named second active agent, 72 h, mean of n = 3 experiments in triplicate.
Format: cell-based
Design: scale not given here
Description: (§1) Cells were thawed from a liquid nitrogen preserved state.
(§2) The calculation for synergy score is provided below.
(§3) If T≧V0:100*[1−(T−V0)/(V−V0)]

**Q.** With `CC1=C(C(=O)Nc2cc3cn[nH]c3cc2F)C(c2ccc(C(F)(F)F)cc2)CC(=O)N1` (stereo not shown) [GSK429286A] as the compound, how does the Synergy score read?
**A.** 4.54

The compounds below were run on HCC-1500 in the same assay as above. Details: Compound 1 in combination with the named second active agent, 72 h, mean of n = 3 experiments in triplicate.
Format: cell-based
Design: scale not given here
Description: as §1, §2, §3

**Q.** With `CC1=C(C(=O)Nc2cc3cn[nH]c3cc2F)C(c2ccc(C(F)(F)F)cc2)CC(=O)N1` (stereo not shown) [GSK429286A] as the compound, how does the Synergy score read?
**A.** 0.19

Each compound was assayed on BT-549 in the same assay as above. Details: Compound 1 in combination with the named second active agent, 72 h, mean of n = 3 experiments in triplicate.
Format: cell-based
Description: as §1, §2, §3

**Q.** Which Synergy score does the source give for `CC1=C(C(=O)Nc2cc3cn[nH]c3cc2F)C(c2ccc(C(F)(F)F)cc2)CC(=O)N1` (stereo not shown) [GSK429286A] here?
**A.** 1.72

What follows are compounds tested on HCC-1806 in the same assay as above. Details: Compound 1 in combination with the named second active agent, 72 h, mean of n = 3 experiments in triplicate.
Format: cell-based
Description: as §1, §2, §3

**Q.** `CC1=C(C(=O)Nc2cc3cn[nH]c3cc2F)C(c2ccc(C(F)(F)F)cc2)CC(=O)N1` (stereo not shown) [GSK429286A] was tested. Which Synergy score did it give?
**A.** 0.51

The compounds below were run on HCC-1937 in the same assay as above. Details: Compound 1 in combination with the named second active agent, 72 h, mean of n = 3 experiments in triplicate.
Format: cell-based
Description: as §1, §2, §3

**Q.** With `CC1=C(C(=O)Nc2cc3cn[nH]c3cc2F)C(c2ccc(C(F)(F)F)cc2)CC(=O)N1` (stereo not shown) [GSK429286A] as the compound, how does the Synergy score read?
**A.** 0.05

What follows are compounds tested on HCC70 in the same assay as above. Details: Compound 1 in combination with second active agent; HCC-70; mean self-cross + 2σ threshold 3.45.
Format: cell-based
Description: as §1, §2, §3

**Q.** Which Synergy score does the source give for `O=C(/C=C/c1cccc(S(=O)(=O)Nc2ccccc2)c1)NO` [Belinostat] here?
**A.** 10.10

**Q.** With `Nc1ccccc1NC(=O)c1ccc(CNC(=O)OCc2cccnc2)cc1` [MS-275] as the compound, how does the Synergy score read?
**A.** 9.37

**Q.** Which Synergy score does the source give for `C/C=C1\NC(=O)[C@H]2CSSCC/C=C/[C@H](CC(=O)N[C@H](C(C)C)C(=O)N2)OC(=O)[C@H](C(C)C)NC1=O` [Romidepsin] here?
**A.** 6.74

**Q.** `CCN(CCO)CCCOc1ccc2c(Nc3cc(CC(=O)Nc4cccc(F)c4)[nH]n3)ncnc2c1` [AZD1152-HQPA(Barasertib)] was tested. Which Synergy score did it give?
**A.** 9.50

These compounds were tested on Hs-578-T in the same assay as above. Details: Compound 1 in combination with second active agent, mean self-cross + 2σ threshold 4.09.
Format: cell-based
Description: as §1, §2, §3

**Q.** Which Synergy score does the source give for `O=C(/C=C/c1cccc(S(=O)(=O)Nc2ccccc2)c1)NO` [Belinostat] here?
**A.** 7.48

**Q.** `CC1=C(C(=O)Nc2cc3cn[nH]c3cc2F)C(c2ccc(C(F)(F)F)cc2)CC(=O)N1` (stereo not shown) [GSK429286A] was tested. Which Synergy score did it give?
**A.** 3.35

**Q.** For `Nc1ccccc1NC(=O)c1ccc(CNC(=O)OCc2cccnc2)cc1` [MS-275], which Synergy score is on record?
**A.** 8.44

**Q.** With `CCN(CCO)CCCOc1ccc2c(Nc3cc(CC(=O)Nc4cccc(F)c4)[nH]n3)ncnc2c1` [AZD1152-HQPA(Barasertib)] as the compound, how does the Synergy score read?
**A.** 2.43

These compounds were tested on MCF7 in the same assay as above. Details: Compound 1 in combination with second active agent, mean self-cross + 2σ threshold 3.07.
Format: cell-based
Description: as §1, §2, §3

**Q.** How did the Synergy score turn out when `O=C(/C=C/c1cccc(S(=O)(=O)Nc2ccccc2)c1)NO` [Belinostat] was run?
**A.** 7.66

**Q.** With `CC1=C(C(=O)Nc2cc3cn[nH]c3cc2F)C(c2ccc(C(F)(F)F)cc2)CC(=O)N1` (stereo not shown) [GSK429286A] as the compound, how does the Synergy score read?
**A.** 0.19

**Q.** With `Nc1ccccc1NC(=O)c1ccc(CNC(=O)OCc2cccnc2)cc1` [MS-275] as the compound, how does the Synergy score read?
**A.** 7.69

**Q.** For `CCN(CCO)CCCOc1ccc2c(Nc3cc(CC(=O)Nc4cccc(F)c4)[nH]n3)ncnc2c1` [AZD1152-HQPA(Barasertib)], which Synergy score is on record?
**A.** 2.57

Each compound was assayed on MDA-MB-157 in the same assay as above. Details: Compound 1 in combination with second active agent, mean self-cross + 2σ threshold 4.68.
Format: cell-based
Description: as §1, §2, §3

**Q.** For `O=C(/C=C/c1cccc(S(=O)(=O)Nc2ccccc2)c1)NO` [Belinostat], which Synergy score is on record?
**A.** 7.58

**Q.** With `CC1=C(C(=O)Nc2cc3cn[nH]c3cc2F)C(c2ccc(C(F)(F)F)cc2)CC(=O)N1` (stereo not shown) [GSK429286A] as the compound, how does the Synergy score read?
**A.** 1.95

**Q.** `Nc1ccccc1NC(=O)c1ccc(CNC(=O)OCc2cccnc2)cc1` [MS-275] was tested. Which Synergy score did it give?
**A.** 8.10

**Q.** `C/C=C1\NC(=O)[C@H]2CSSCC/C=C/[C@H](CC(=O)N[C@H](C(C)C)C(=O)N2)OC(=O)[C@H](C(C)C)NC1=O` [Romidepsin] was tested. Which Synergy score did it give?
**A.** 5.71

**Q.** With `CCN(CCO)CCCOc1ccc2c(Nc3cc(CC(=O)Nc4cccc(F)c4)[nH]n3)ncnc2c1` [AZD1152-HQPA(Barasertib)] as the compound, how does the Synergy score read?
**A.** 1.81

The compounds below were run on MDA-MB-231 in the same assay as above. Details: Compound 1 in combination with second active agent, mean self-cross + 2σ threshold 2.61.
Format: cell-based
Description: as §1, §2, §3

**Q.** For `O=C(/C=C/c1cccc(S(=O)(=O)Nc2ccccc2)c1)NO` [Belinostat], which Synergy score is on record?
**A.** 12.40

**Q.** `CC1=C(C(=O)Nc2cc3cn[nH]c3cc2F)C(c2ccc(C(F)(F)F)cc2)CC(=O)N1` (stereo not shown) [GSK429286A] was tested. Which Synergy score did it give?
**A.** 2.14

**Q.** How did the Synergy score turn out when `Nc1ccccc1NC(=O)c1ccc(CNC(=O)OCc2cccnc2)cc1` [MS-275] was run?
**A.** 11.70

**Q.** Which Synergy score does the source give for `C/C=C1\NC(=O)[C@H]2CSSCC/C=C/[C@H](CC(=O)N[C@H](C(C)C)C(=O)N2)OC(=O)[C@H](C(C)C)NC1=O` [Romidepsin] here?
**A.** 9.27

**Q.** How did the Synergy score turn out when `CCN(CCO)CCCOc1ccc2c(Nc3cc(CC(=O)Nc4cccc(F)c4)[nH]n3)ncnc2c1` [AZD1152-HQPA(Barasertib)] was run?
**A.** 1.42

The compounds below were run on MDA-MB-436 in the same assay as above. Details: Compound 1 in combination with second active agent, mean self-cross + 2σ threshold 1.91.
Format: cell-based
Description: as §1, §2, §3

**Q.** Which Synergy score does the source give for `O=C(/C=C/c1cccc(S(=O)(=O)Nc2ccccc2)c1)NO` [Belinostat] here?
**A.** 7.84

**Q.** How did the Synergy score turn out when `CC1=C(C(=O)Nc2cc3cn[nH]c3cc2F)C(c2ccc(C(F)(F)F)cc2)CC(=O)N1` (stereo not shown) [GSK429286A] was run?
**A.** 0.57

**Q.** For `Nc1ccccc1NC(=O)c1ccc(CNC(=O)OCc2cccnc2)cc1` [MS-275], which Synergy score is on record?
**A.** 7.83

**Q.** How did the Synergy score turn out when `C/C=C1\NC(=O)[C@H]2CSSCC/C=C/[C@H](CC(=O)N[C@H](C(C)C)C(=O)N2)OC(=O)[C@H](C(C)C)NC1=O` [Romidepsin] was run?
**A.** 5.84

**Q.** For `CCN(CCO)CCCOc1ccc2c(Nc3cc(CC(=O)Nc4cccc(F)c4)[nH]n3)ncnc2c1` [AZD1152-HQPA(Barasertib)], which Synergy score is on record?
**A.** 5.60

What follows are compounds tested on MDA-MB-468 in the same assay as above. Details: Compound 1 in combination with second active agent, mean self-cross + 2σ threshold 4.66.
Format: cell-based
Description: as §1, §2, §3

**Q.** With `O=C(/C=C/c1cccc(S(=O)(=O)Nc2ccccc2)c1)NO` [Belinostat] as the compound, how does the Synergy score read?
**A.** 6.75

**Q.** `CC1=C(C(=O)Nc2cc3cn[nH]c3cc2F)C(c2ccc(C(F)(F)F)cc2)CC(=O)N1` (stereo not shown) [GSK429286A] was tested. Which Synergy score did it give?
**A.** 0.13

**Q.** Which Synergy score does the source give for `Nc1ccccc1NC(=O)c1ccc(CNC(=O)OCc2cccnc2)cc1` [MS-275] here?
**A.** 9.25

**Q.** `C/C=C1\NC(=O)[C@H]2CSSCC/C=C/[C@H](CC(=O)N[C@H](C(C)C)C(=O)N2)OC(=O)[C@H](C(C)C)NC1=O` [Romidepsin] was tested. Which Synergy score did it give?
**A.** 7.26

**Q.** Which Synergy score does the source give for `CCN(CCO)CCCOc1ccc2c(Nc3cc(CC(=O)Nc4cccc(F)c4)[nH]n3)ncnc2c1` [AZD1152-HQPA(Barasertib)] here?
**A.** 9.13
